Measurements reported in PMC9898036, “VIP152 is a selective CDK9 inhibitor with pre-clinical in vitro and in vivo efficacy in chronic lymphocytic leukemia” (Leukemia, 2022).

Assays:
Format in all cases: binding
[1] = molecular target: human kinome (Homo sapiens, UniProt O00506); test: DiscoverX KINOMEscan kinase profiling (468 assays); conditions: kinase YSK1 (Entrez STK25); compound concentration 1000 nM; read-out: Percent Control
Outline: (§1)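 DNA-tagged kinases competed for immobilized biotinylated ligands on streptavidin magnetic beads, with bound kinase quantified by qPCR. VIP152 in DMSO was tested against a DMSO control.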

[2] = molecular target: human kinome (Homo sapiens, UniProt O15264); test: DiscoverX KINOMEscan kinase profiling (468 assays); conditions: read-out: Percent Control
human kinome (Homo sapiens, UniProt O15264), sequence (O15264 whole entry): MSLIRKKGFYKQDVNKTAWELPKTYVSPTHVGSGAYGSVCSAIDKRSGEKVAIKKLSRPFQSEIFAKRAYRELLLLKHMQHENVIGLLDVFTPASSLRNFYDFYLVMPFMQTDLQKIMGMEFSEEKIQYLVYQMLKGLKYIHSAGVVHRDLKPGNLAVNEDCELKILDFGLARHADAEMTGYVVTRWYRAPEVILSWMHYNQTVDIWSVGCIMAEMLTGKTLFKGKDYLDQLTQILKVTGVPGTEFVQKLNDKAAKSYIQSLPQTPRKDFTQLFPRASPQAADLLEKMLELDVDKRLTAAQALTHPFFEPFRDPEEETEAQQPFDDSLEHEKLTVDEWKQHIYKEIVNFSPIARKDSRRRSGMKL
Outline: as §1

[3] = molecular target: human kinome (Homo sapiens, UniProt O76039); test: DiscoverX KINOMEscan kinase profiling (468 assays); conditions: CDKL5; 100 nM; read-out: Percent Control
Outline: as §1

[4] = molecular target: human kinome (Homo sapiens, UniProt O95382); test: DiscoverX KINOMEscan kinase profiling (468 assays); conditions: ASK2 (Entrez MAP3K6); 100 nM; read-out: Percent Control
Outline: as §1

[5] = molecular target: human kinome (Homo sapiens, UniProt P00533, G719S); test: DiscoverX KINOMEscan kinase profiling (468 assays); conditions: EGFR(G719S); 100 nM; read-out: Percent Control
Outline: as §1

[6] = molecular target: human kinome (Homo sapiens, UniProt P0C1S8); test: DiscoverX KINOMEscan kinase profiling (468 assays); conditions: kinase WEE2 (Entrez WEE2); compound concentration 1000 nM; read-out: Percent Control
Outline: as §1

[7] = molecular target: human kinome (Homo sapiens, UniProt P0C264); test: DiscoverX KINOMEscan kinase profiling (468 assays); conditions: kinase SgK110 (Entrez SgK110); compound concentration 1000 nM; read-out: Percent Control
Outline: as §1

[8] = molecular target: human kinome (Homo sapiens, UniProt P10721, V559D/V654A); test: DiscoverX KINOMEscan kinase profiling (468 assays); conditions: KIT(V559D,V654A); 100 nM; read-out: Percent Control
Outline: as §1

[9] = molecular target: human kinome (Homo sapiens, UniProt P11362); test: DiscoverX KINOMEscan kinase profiling (468 assays); conditions: FGFR1; 100 nM; read-out: Percent Control
Outline: as §1

[10] = molecular target: human kinome (Homo sapiens, UniProt P20794); test: DiscoverX KINOMEscan kinase profiling (468 assays); conditions: MAK; 100 nM; read-out: Percent Control
Outline: as §1

[11] = molecular target: human kinome (Homo sapiens, UniProt P21709); test: DiscoverX KINOMEscan kinase profiling (468 assays); conditions: EPHA1; 100 nM; read-out: Percent Control
Outline: as §1

[12] = molecular target: human kinome (Homo sapiens, UniProt P24723); test: DiscoverX KINOMEscan kinase profiling (468 assays); conditions: read-out: Percent Control
human kinome (Homo sapiens, UniProt P24723), sequence (P24723 whole entry): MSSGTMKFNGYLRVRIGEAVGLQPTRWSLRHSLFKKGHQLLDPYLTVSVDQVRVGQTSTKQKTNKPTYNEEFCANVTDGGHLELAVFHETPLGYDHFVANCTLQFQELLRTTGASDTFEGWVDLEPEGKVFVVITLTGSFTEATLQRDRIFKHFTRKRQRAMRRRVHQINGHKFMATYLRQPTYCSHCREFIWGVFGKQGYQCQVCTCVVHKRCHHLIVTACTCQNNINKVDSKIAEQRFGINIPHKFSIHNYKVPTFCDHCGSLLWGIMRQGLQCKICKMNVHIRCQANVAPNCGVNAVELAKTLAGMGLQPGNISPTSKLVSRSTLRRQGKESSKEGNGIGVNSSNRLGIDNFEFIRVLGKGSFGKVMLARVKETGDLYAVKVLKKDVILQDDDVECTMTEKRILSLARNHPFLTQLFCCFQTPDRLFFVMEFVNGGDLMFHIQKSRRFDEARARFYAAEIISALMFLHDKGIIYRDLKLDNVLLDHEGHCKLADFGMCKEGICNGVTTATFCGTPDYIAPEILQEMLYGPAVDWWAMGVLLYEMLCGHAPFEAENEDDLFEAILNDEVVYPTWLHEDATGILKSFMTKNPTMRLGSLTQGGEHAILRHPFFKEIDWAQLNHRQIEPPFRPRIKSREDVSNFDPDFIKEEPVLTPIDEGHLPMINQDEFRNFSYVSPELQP
Outline: as §1

[13] = molecular target: human kinome (Homo sapiens, UniProt P35626); test: DiscoverX KINOMEscan kinase profiling (468 assays); conditions: GRK3 (Entrez ADRBK2); 100 nM; read-out: Percent Control
Outline: as §1

[14] = molecular target: human kinome (Homo sapiens, UniProt P45984); test: DiscoverX KINOMEscan kinase profiling (468 assays); conditions: JNK2 (Entrez MAPK9); 100 nM; read-out: Percent Control
Outline: as §1

[15] = molecular target: human kinome (Homo sapiens, UniProt P51956); test: DiscoverX KINOMEscan kinase profiling (468 assays); conditions: read-out: Percent Control
human kinome (Homo sapiens, UniProt P51956), sequence (P51956 whole entry): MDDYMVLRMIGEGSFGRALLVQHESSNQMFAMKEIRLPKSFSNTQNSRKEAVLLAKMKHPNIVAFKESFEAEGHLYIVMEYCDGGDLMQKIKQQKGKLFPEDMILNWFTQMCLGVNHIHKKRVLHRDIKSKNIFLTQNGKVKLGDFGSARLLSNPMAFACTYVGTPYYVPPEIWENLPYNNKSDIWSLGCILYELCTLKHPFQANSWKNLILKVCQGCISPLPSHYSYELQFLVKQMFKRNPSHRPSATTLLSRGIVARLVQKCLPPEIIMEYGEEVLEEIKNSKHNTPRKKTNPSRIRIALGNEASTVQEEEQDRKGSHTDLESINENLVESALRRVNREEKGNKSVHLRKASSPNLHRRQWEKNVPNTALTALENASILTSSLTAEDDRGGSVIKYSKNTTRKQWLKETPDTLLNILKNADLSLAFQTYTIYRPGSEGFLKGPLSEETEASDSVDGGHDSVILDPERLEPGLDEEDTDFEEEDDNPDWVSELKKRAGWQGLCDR
Outline: as §1

[16] = molecular target: human kinome (Homo sapiens, UniProt P52564); test: DiscoverX KINOMEscan kinase profiling (468 assays); conditions: MEK6 (Entrez MAP2K6); 100 nM; read-out: Percent Control
Outline: as §1

[17] = molecular target: human kinome (Homo sapiens, UniProt P54753); test: DiscoverX KINOMEscan kinase profiling (468 assays); conditions: EPHB3; 100 nM; read-out: Percent Control
Outline: as §1

[18] = molecular target: human kinome (Homo sapiens, UniProt Q13164); test: DiscoverX KINOMEscan kinase profiling (468 assays); conditions: ERK5 (Entrez MAPK7); 100 nM; read-out: Percent Control
Outline: as §1

[19] = molecular target: human kinome (Homo sapiens, UniProt Q13555); test: DiscoverX KINOMEscan kinase profiling (468 assays); conditions: CAMK2G; 100 nM; read-out: Percent Control
human kinome (Homo sapiens, UniProt Q13555), sequence (Q13555 whole entry): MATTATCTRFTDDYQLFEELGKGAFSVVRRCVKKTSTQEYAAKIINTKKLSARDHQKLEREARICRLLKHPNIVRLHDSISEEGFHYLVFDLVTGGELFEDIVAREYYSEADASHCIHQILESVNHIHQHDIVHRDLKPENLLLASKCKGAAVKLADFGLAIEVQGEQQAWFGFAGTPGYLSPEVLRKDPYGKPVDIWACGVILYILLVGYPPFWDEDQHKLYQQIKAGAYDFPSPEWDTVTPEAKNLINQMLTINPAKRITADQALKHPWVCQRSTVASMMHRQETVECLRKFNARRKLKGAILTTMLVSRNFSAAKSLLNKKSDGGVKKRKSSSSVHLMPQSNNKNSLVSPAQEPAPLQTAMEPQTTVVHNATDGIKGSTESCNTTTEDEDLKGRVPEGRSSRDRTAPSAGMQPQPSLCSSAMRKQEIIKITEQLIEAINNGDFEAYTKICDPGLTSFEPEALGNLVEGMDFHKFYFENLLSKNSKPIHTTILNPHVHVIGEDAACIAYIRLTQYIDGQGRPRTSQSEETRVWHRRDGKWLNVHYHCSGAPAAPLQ
Outline: as §1

[20] = molecular target: human kinome (Homo sapiens, UniProt Q13873); test: DiscoverX KINOMEscan kinase profiling (468 assays); conditions: BMPR2; 100 nM; read-out: Percent Control
Outline: as §1

[21] = molecular target: human kinome (Homo sapiens, UniProt Q15759); test: DiscoverX KINOMEscan kinase profiling (468 assays); conditions: read-out: Percent Control
human kinome (Homo sapiens, UniProt Q15759), sequence (Q15759 whole entry): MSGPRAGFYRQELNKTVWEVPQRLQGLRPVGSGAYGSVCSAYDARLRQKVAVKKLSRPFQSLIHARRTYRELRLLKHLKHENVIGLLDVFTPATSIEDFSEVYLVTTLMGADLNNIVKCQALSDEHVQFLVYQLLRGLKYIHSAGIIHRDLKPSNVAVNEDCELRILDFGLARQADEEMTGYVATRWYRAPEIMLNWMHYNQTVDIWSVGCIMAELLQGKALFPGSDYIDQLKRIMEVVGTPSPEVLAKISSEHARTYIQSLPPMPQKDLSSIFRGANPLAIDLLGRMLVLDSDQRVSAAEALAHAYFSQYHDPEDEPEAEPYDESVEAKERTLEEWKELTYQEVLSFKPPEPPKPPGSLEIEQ
Outline: as §1

[22] = molecular target: human kinome (Homo sapiens, UniProt Q32MK0); test: DiscoverX KINOMEscan kinase profiling (468 assays); conditions: MLCK (Entrez MYLK3); 100 nM; read-out: Percent Control
human kinome (Homo sapiens, UniProt Q32MK0), sequence (Q32MK0 whole entry): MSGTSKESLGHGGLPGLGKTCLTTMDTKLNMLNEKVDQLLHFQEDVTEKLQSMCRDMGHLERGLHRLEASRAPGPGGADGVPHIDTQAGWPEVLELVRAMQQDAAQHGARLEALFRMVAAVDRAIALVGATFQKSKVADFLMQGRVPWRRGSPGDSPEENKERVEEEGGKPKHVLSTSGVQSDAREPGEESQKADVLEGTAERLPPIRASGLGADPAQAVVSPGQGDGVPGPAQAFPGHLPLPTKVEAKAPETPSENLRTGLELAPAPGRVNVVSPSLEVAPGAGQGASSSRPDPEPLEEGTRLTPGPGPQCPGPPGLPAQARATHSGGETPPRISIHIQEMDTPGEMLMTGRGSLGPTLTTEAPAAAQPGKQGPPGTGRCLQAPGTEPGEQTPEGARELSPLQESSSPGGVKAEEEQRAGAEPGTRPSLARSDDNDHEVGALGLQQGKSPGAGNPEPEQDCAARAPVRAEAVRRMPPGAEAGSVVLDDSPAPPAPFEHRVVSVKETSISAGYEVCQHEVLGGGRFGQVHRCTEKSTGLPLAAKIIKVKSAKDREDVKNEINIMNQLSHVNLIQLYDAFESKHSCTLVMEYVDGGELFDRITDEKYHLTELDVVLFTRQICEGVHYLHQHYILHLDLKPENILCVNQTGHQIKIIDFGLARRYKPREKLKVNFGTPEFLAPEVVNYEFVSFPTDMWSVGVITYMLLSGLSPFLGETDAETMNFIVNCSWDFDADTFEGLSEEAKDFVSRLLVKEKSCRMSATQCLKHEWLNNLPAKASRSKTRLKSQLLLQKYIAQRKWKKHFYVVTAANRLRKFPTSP
Outline: as §1

[23] = molecular target: human kinome (Homo sapiens, UniProt Q8TBX8); test: DiscoverX KINOMEscan kinase profiling (468 assays); conditions: read-out: Percent Control
human kinome (Homo sapiens, UniProt Q8TBX8), sequence (Q8TBX8 whole entry): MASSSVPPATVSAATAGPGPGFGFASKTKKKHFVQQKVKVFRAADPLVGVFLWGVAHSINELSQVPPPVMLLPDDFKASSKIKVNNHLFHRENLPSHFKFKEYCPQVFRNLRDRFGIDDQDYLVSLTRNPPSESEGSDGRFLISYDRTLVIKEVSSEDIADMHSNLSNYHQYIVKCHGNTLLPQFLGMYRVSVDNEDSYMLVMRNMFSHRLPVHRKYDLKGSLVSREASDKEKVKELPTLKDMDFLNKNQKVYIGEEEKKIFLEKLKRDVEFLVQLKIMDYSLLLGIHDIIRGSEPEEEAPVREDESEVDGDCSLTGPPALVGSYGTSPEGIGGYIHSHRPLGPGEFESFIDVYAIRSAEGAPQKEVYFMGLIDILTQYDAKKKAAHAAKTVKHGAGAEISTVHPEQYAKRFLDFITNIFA
Outline: as §1

[24] = molecular target: human kinome (Homo sapiens, UniProt Q8TD19); test: DiscoverX KINOMEscan kinase profiling (468 assays); conditions: read-out: Percent Control
human kinome (Homo sapiens, UniProt Q8TD19), sequence (Q8TD19 whole entry): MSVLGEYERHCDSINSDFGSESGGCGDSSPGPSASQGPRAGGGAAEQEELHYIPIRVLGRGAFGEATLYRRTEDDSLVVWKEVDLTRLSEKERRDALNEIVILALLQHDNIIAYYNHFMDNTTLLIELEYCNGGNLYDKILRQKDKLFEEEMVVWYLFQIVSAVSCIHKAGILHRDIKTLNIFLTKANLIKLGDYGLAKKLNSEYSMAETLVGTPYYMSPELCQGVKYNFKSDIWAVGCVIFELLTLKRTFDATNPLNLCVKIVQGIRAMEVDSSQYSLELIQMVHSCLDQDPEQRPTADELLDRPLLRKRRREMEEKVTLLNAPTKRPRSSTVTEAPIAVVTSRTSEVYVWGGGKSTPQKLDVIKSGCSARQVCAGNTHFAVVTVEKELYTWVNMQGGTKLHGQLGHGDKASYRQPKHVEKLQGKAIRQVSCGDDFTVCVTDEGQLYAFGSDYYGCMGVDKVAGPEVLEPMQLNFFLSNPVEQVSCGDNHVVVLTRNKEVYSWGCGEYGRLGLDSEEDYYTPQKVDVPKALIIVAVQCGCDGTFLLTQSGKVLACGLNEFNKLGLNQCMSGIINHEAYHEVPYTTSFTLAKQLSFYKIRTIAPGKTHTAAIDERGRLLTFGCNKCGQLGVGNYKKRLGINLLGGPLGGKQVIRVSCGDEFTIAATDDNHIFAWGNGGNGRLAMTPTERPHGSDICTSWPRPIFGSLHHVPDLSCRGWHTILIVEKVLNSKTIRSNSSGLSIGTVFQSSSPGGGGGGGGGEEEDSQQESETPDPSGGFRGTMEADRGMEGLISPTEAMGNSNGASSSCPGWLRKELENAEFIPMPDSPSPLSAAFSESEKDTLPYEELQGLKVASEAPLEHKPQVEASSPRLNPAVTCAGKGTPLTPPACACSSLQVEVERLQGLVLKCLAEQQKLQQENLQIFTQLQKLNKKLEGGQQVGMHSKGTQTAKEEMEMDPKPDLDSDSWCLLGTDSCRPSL
Outline: as §1

[25] = molecular target: human kinome (Homo sapiens, UniProt Q96L34); test: DiscoverX KINOMEscan kinase profiling (468 assays); conditions: MARK4; 100 nM; read-out: Percent Control
Outline: as §1

[26] = molecular target: human kinome (Homo sapiens, UniProt Q9NRP7); test: DiscoverX KINOMEscan kinase profiling (468 assays); conditions: kinase STK36 (Entrez STK36); compound concentration 1000 nM; read-out: Percent Control
Outline: as §1

[27] = molecular target: human kinome (Homo sapiens, UniProt Q9UHD2); test: DiscoverX KINOMEscan kinase profiling (468 assays); conditions: kinase TBK1 (Entrez TBK1); compound concentration 1000 nM; read-out: Percent Control
Outline: as §1

[28] = molecular target: human kinome (Homo sapiens, UniProt Q9Y616); test: DiscoverX KINOMEscan kinase profiling (468 assays); conditions: IRAK3; 100 nM; read-out: Percent Control
Outline: as §1

[29] = molecular target: human kinome (Homo sapiens, UniProt Q9Y6E0); test: DiscoverX KINOMEscan kinase profiling (468 assays); conditions: MST3 (Entrez STK24); 100 nM; read-out: Percent Control
Outline: as §1

[30] = molecular target: CDC2L1 (Homo sapiens, UniProt P21127); test: KINOMEscan: CDC2L1; conditions: 1000 nM, read-out: Percent Control

Q: Which remaining binding at 1 µM [1] does the source give for COc1cc(F)ccc1-c1cc(Nc2cc(CS(C)(=N)=O)ccn2)ncc1F (stereo not drawn) [VIP152] here?
A: 100%

Q: And the remaining binding at 1 µM ([2]; kinase p38-delta (Entrez MAPK13), compound concentration 1000 nM)?
A: 98%

Q: What about the remaining binding at 0.1 µM ([2]; p38-delta (Entrez MAPK13), 100 nM) of the same molecule?
A: 100%

Q: What about the remaining binding at 0.1 µM [3] of the same molecule?
A: 100%

Q: What about the remaining binding at 0.1 µM [4] of the same molecule?
A: 100%

Q: And the remaining binding at 0.1 µM [5]?
A: 100%

Q: And the remaining binding at 1 µM [6]?
A: 89%

Q: And the remaining binding at 1 µM [7]?
A: 100%

Q: And the remaining binding at 0.1 µM [8]?
A: 100%

Q: And the remaining binding at 0.1 µM [9]?
A: 100%

Q: And the remaining binding at 0.1 µM [10]?
A: 100%

Q: And the remaining binding at 0.1 µM [11]?
A: 100%

Q: And the remaining binding at 0.1 µM ([12]; PRKCH, 100 nM)?
A: 100%

Q: And the remaining binding at 1 µM ([12]; kinase PRKCH (Entrez PRKCH), compound concentration 1000 nM)?
A: 94%

Q: What about the remaining binding at 0.1 µM [13] of the same molecule?
A: 89%

Q: And the remaining binding at 0.1 µM [14]?
A: 89%

Q: And the remaining binding at 0.1 µM ([15]; NEK3, 100 nM)?
A: 98%

Q: What about the remaining binding at 1 µM ([15]; kinase NEK3 (Entrez NEK3), compound concentration 1000 nM) of the same molecule?
A: 62%

Q: What about the remaining binding at 0.1 µM [16] of the same molecule?
A: 100%

Q: And the remaining binding at 0.1 µM [17]?
A: 100%

Q: And the remaining binding at 0.1 µM [18]?
A: 100%

Q: And the remaining binding at 0.1 µM [19]?
A: 100%

Q: And the remaining binding at 0.1 µM [20]?
A: 99%

Q: What about the remaining binding at 1 µM ([21]; kinase p38-beta (Entrez MAPK11), compound concentration 1000 nM) of the same molecule?
A: 100%

Q: And the remaining binding at 0.1 µM ([21]; p38-beta (Entrez MAPK11), 100 nM)?
A: 100%

Q: And the remaining binding at 0.1 µM [22]?
A: 100%

Q: What about the remaining binding at 0.1 µM ([23]; PIP5K2C (Entrez PIP4K2C), 100 nM) of the same molecule?
A: 52%

Q: What about the remaining binding at 1 µM ([23]; kinase PIP5K2C (Entrez PIP4K2C), compound concentration 1000 nM) of the same molecule?
A: 82%

Q: And the remaining binding at 0.1 µM ([24]; NEK9, 100 nM)?
A: 100%

Q: What about the remaining binding at 1 µM ([24]; kinase NEK9 (Entrez NEK9), compound concentration 1000 nM) of the same molecule?
A: 93%

Q: And the remaining binding at 0.1 µM [25]?
A: 81%

Q: And the remaining binding at 1 µM [26]?
A: 84%

Q: What about the remaining binding at 1 µM [27] of the same molecule?
A: 100%

Q: And the remaining binding at 0.1 µM [28]?
A: 90%

Q: And the remaining binding at 0.1 µM [29]?
A: 100%

Q: What about the remaining binding at 1 µM [30] of the same molecule?
A: 96%
